Values joined by “and” are separate entries in the source; they are usually repeats but may differ in a detail not shown here. Identical values can stand only once. Like-named read-outs stand apart in the source and are kept apart here.
What was measured:
[1] = system: LXR-related markers (Abca1, Srebf1_1C, AQP1, ApoE1); test: In vivo qPCR analysis of effect of inotodiol on LXR-related markers; parameters: species or system mice (BALB/cAnNTacSam)
Experimental: The effect of inotodiol on Abca1, Srebf1_1C, AQP1, and ApoE1, which are LXR-related markers, was analyzed.
First, an inotodiol emulsion for administration at a dose of 4 mg/kg was prepared. Specifically, an emulsion was prepared by mixing inotodiol with 10% of olive oil (Monini, Classico extra virgin olive oil), 0.5% of tween 80, and sterile water. Subsequently, each 0.15 mL of the prepared emulsion was administered to BALB/cAnNTacSam (Sam Taco Bio Korea Co., Ltd.) for 5 days. After 5 days of administration, mice were euthanized, and then spleen, lung, liver and peritoneal cell samples were isolated.
Next, to perform qPCR on the isolated samples, total RNA was extracted using a Bead™ Total RNA Prep Kit (BioFACT™) sample. Thereafter, primers for Abca1, Srebf1_1C, AQP1, and ApoE1 were used, the reaction reagent for qPCR was 2× Real-Time PCR Master Mix (BioFACT™), and the equipment used for qPCR was AriaMx Real-time PCR. The qPCR conditions were as follows: at 95° C. for 15 minutes, and 50 cycles at 95° C. for 20 seconds, 55° C. for 30 seconds, and 72° C. for 0.5-1 min/kb, and for the melting curve, 1 cycle was performed at 95° C. for 30 seconds, 65° C. for 30 seconds, and 95° C. for 30 seconds, and relative mRNA expression was measured.

[2] = Two-week mouse toxicity test: health signs and total fat content of liver; conditions: for changes in total fat content of the liver: male and female mice, 2 weeks
Experimental: If inotodiol is a LXR-α agonist, inotodiol overexpresses Srebf1 in the liver, thereby inducing fatty liver. Selectivity for LXRs and safety of inotodiol were evaluated through a two-week mouse toxicity test.
Specifically, the inotodiol emulsion was orally administered to male and female ICR mice in an amount of 0.0 mg/kg (group 1), 5.0 mg/kg (group 2), and 20 mg/kg (group 3) once a day for 2 weeks. […] As a control, 100% olive oil was administered.

[3] = Inotodiol concentrations in blood and brain tissue (LC/MS); assay type: in vivo, Balb/c mice; conditions: 4.5 mg/kg orally for 10 days, sampled day 11; for concentration at 11 day: 4.5 mg/kg
Experimental: When inotodiol was administered to mice, the concentrations of inotodiol detected in blood and brain tissue of the mice were analyzed.
Specifically, 7-week-old Balb/c mice were supplied and acclimatized for 1 week, and then 4 mice per group were assigned to conduct experiments. Mice were grouped into: four controls not administered with inotodiol; and four groups administered with inotodiol. In the groups administered with inotodiol, 4.5 mg/kg of inotodiol was orally administered for 10 days. On day 11, the controls and inotodiol-administered mice were sacrificed, and blood and brain tissue samples were prepared.
First, to analyze the concentration of inotodiol in blood, 20 μL of serum was transferred to a 1.5 mL Eppendorf tube, and then inotodiol was extracted twice in ethanol. In each extraction step, 200 μL of ethanol was mixed with serum and the mixture was sonicated for 10 minutes, followed by centrifugation at 14000×g for 15 minutes.
To analyze the concentration of inotodiol in brain tissue, the whole brain was weighed and mixed with 10-fold (v/w) 100% ethanol, and then the mixture was sonicated and centrifuged.
After centrifugation, each residue was reconstituted with 0.5 mL of 60% methanol for solid phase extraction by using a C18 cartridge (Sep-Pak C18 3 cc Vac Cartridge, 200 mg adsorbent, Waters). Samples were loaded into cartridges and activated using methanol (6 mL), followed by conditioning with 60% methanol (6 mL). The cartridges were then washed with 6 mL of 60% methanol. Then, inotodiol was collected by eluting the cartridges with 100% methanol (3 mL) in glass tubes. After evaporation of each sample, the residue was dissolved in methanol and subjected to LC/MS analysis.

ABCA1 = test: Real-time PCR of ABCA1 gene expression in brain tissue; assay type: in vivo, Balb/c mice; conditions: Ino (10 mpk) vs control (Naïve); groups prepared as in Example 3; FIG. 6A
Experimental: (§1) When inotodiol was administered to mice, the expression of ABCA1 and APOE in brain tissue, which are genes related to neurodegenerative brain diseases, was analyzed.
(§2) Specifically, as in Example 3, controls and inotodiol-administered mouse groups were prepared, and then, to extract total RNA, first, 50 mg of brain tissue samples were quantified, and then cells were crushed using a mortar. 1 mL of Trizol was dispensed into each crushed sample and mixed by vortexing. Then, 0.2 mL of chloroform was dispensed and a reaction was allowed to occur therein at room temperature for 3 minutes. The reaction product was centrifuged at 12,000 rpm and 4° C. for 15 minutes, and then only the transparent supernatant was transferred to a new tube. Thereafter, 0.5 mL of isopropyl alcohol was dispensed, and then a reaction was allowed to occur therein at room temperature for 10 minutes. The resultant was centrifuged 12,000 rpm and 4° C. for 10 minutes, and then the supernatant was completely removed, and impurities were removed using 1 mL of 75% ethanol. […] Each sample was dissolved using DEPC water, and then total RNA was quantified to 1000 ng/μL using Nanodrop, and cDNA synthesis was performed using primeScript RT Master Mix (Takara Korea). […]

APOE = test: Real-time PCR of APOE gene expression in brain tissue; assay type: in vivo, Balb/c mice; conditions: Ino (10 mpk) vs control (Naïve); groups prepared as in Example 3; FIG. 6B
Experimental: as §1, §2

rheumatoid arthritis = test: Bovine type II collagen-induced arthritis, macroscopic arthritic score; assay type: in vivo, male DBA/1J mice; conditions: 4 mg/kg or 10 mg/kg orally once a day for 4 weeks; vs arthritic animals not administered; FIG. 7
TNF-α = TNF-α ELISA in arthritic animals; assay type: in vivo, mouse; conditions: arthritic animals administered with inotodiol; FIG. 8
Experimental: Next, the expression of TNF-α, which is a factor that activates inflammation, was confirmed. […] Then, the coating buffer was removed, followed by washing three times with 200 μL of washing buffer (0.05% Tween20/PBS). To prevent non-specific binding, a reaction with 200 μL of a blocking solution (1% BSA/PBS) was allowed to occur at room temperature for 1 hour. Washing was performed three times using a washing buffer. A standard material (Biolgend) and each sample were diluted using a blocking solution, and then 100 μL of each thereof was dispensed, and a reaction was allowed to occur therein at room temperature for 2-4 hours. Washing was performed three times using a washing buffer. A secondary antibody (biotin-labeled detection antibody, biolegend) was diluted to 0.25-2 μg/mL using a blocking solution, and then 100 μl thereof was dispensed and a reaction was allowed to occur therein at room temperature for 1 hour. Washing was performed three times using a washing buffer. Avidin-Horseradish peroxidase (Biolegend) was diluted 1/1000 times using a blocking solution, then 100 μL thereof was dispensed and a reaction was allowed to occur therein at room temperature for 30 minutes. Washing was performed 5 times using a washing buffer. […] An ELISA plate was examined at 450 nm using an EPOCH microplate reader (Biotek).

[4] = inotodiol emulsion 4 mg/kg for 5 days, various samples (FIGS. 1 to 5), vs untreated control
[5] = liver sample, 4 mg/kg for 5 days

For CC(C)=CC[C@@H](O)[C@@H](C)[C@H]1CC[C@@]2(C)C3=C(CC[C@]12C)[C@@]1(C)CC[C@H](O)C(C)(C)[C@@H]1CC3 [inotodiol, (3S,5R,10S,13R,14R,17R)-17-[(2S,3R)-3-hydroxy-6-methylhept-5-en-2-yl]-4,4,10,13,14-pentamethyl-2,3,5,6,7,11,12,15,16,17-decahydro-1H-cyclopenta[a]phenanthren-3-ol], which “expression of AQP1 (relative mRNA expression)” value [1, 4] is on record?
Its value is “increases”.

What about the “expression of Abca1 (relative mRNA expression)” value [1, 4] of the same compound?
The value was “increases”.

And the “expression of ApoE1 (relative mRNA expression)” value [1, 4]?
The value was “increases”.

And the “expression of Srebf1 (relative mRNA expression)” value [1, 4]?
The value was “increases”.

What about the “expression of AQP1, regulated by LXR-β” value [1, 5] of the same compound?
Its value is “significant increase”.

And the “expression of Srebf1, specifically regulated by LXR-α” value [1, 5]?
Its value is “no significant increase”.

And the “LXR-α / LXR-β selectivity inferred from marker expression” value ([1]; liver sample, inferred from Srebf1 and AQP1 expression)?
The value was “does not bind well to LXR-α and acts as an agonist by more specifically binding to LXR-β”.

And the “Total fat (%) in mouse liver, Average” value ([2]; Female, Group 2 (5.0 mg/kg oral once a day for 2 weeks))?
The value was 3.24%.

And the “Total fat (%) in mouse liver, individual animal analyses” value ([2]; Female, Group 2 (5.0 mg/kg oral once a day for 2 weeks), 5 mg/kg)?
The value was 2.96% and 3.08% and 2.80% and 2.72% and 3.45% and 3.57% and 3.03% and 3.10% and 4.42% and 3.82% and 2.85% and 3.09%.

And the “Total fat (%) in mouse liver, Average” value ([2]; Female, Group 3 (20 mg/kg oral once a day for 2 weeks))?
Its value is 3.56%.

And the “Total fat (%) in mouse liver, individual animal analyses” value ([2]; Female, Group 3 (20 mg/kg oral once a day for 2 weeks), 20 mg/kg)?
Its value is 4.01% and 4.03% and 3.49% (2×) and 2.69% and 2.94% and 3.09% and 3.19% and 3.16% and 3.23% and 4.77% and 4.62%.

What about the “Total fat (%) in mouse liver, Average” value ([2]; Male, Group 2 (5.0 mg/kg oral once a day for 2 weeks)) of the same compound?
The value was 3.23%.

What about the “Total fat (%) in mouse liver, individual animal analyses” value ([2]; Male, Group 2 (5.0 mg/kg oral once a day for 2 weeks), 5 mg/kg) of the same compound?
The value was 3.39% and 3.25% and 3.48% and 3.47% and 2.83% and 2.72% and 2.86% and 3.78% and 3.19% and 3.17% and 3.18% and 3.43%.

And the “Total fat (%) in mouse liver, Average” value ([2]; Male, Group 3 (20 mg/kg oral once a day for 2 weeks))?
The value was 3.27%.

And the “Total fat (%) in mouse liver, individual animal analyses” value ([2]; Male, Group 3 (20 mg/kg oral once a day for 2 weeks), 20 mg/kg)?
Its value is 3.38% and 3.52% and 3.44% and 3.47% and 3.07% and 3.10% and 3.23% and 3.30% and 3.36% and 3.41% and 2.99% and 2.93%.

What about the “changes in total fat content of the liver” value ([2]; dose of 5 mg/kg) of the same compound?
The value was “no significant changes”.

And the “changes in total fat content of the liver” value ([2]; dose of 20 mg/kg)?
Its value is “no significant changes”.

What about the “signs of abnormal health” value ([2]; oral, 5.0 and 20 mg/kg once a day for 2 weeks, male and female ICR mice) of the same compound?
Its value is “No signs of abnormal health”.

What about the “Inotodiol concentration (ng/g) Brain, individual mice” value [3] of the same compound?
The value was 177.1 ng/g and 133.3 ng/g and 135.0 ng/g.

And the “Inotodiol concentration (ng/g) Brain, Average” value ([3]; 4 mice)?
The value was 151.7 ± 21.3 ng/g.

And the “Inotodiol concentration (ng/g) Blood, Average” value ([3]; 4 mice, serum)?
Its value is 12.1 ± 1.3 ng/g.

What about the “Inotodiol concentration (ng/g) Blood, individual mice” value ([3]; serum) of the same compound?
The value was 10.5 ng/g and 14.2 ng/g and 11.8 ng/g.

And the Kp at 11 day ([3]; Balb/c, mouse, brain / blood (serum), oral, read-out: inotodiol detected in the brain relative to blood)?
Its Kp at 11 day is roughly 12.

And the concentration at 11 day ([3]; Balb/c, mouse, brain, oral, 4 mice, read-out: Inotodiol concentration (ng/g) Brain, Average)?
The concentration at 11 day was 152 ± 21.3 ng/g.

What about the concentration at 11 day ([3]; Balb/c, mouse, brain, oral, read-out: Inotodiol concentration (ng/g) Brain, individual mice) of the same compound?
The concentration at 11 day was 161 ng/g.

And the concentration at 11 day ([3]; Balb/c, mouse, serum, oral, 4 mice, serum, read-out: Inotodiol concentration (ng/g) Blood, Average)?
Its concentration at 11 day is 12.1 ± 1.3 ng/g.

What about the concentration at 11 day ([3]; Balb/c, mouse, serum, oral, serum, read-out: Inotodiol concentration (ng/g) Blood, individual mice) of the same compound?
The concentration at 11 day was 12.2 ng/g.

What about the “ABCA1 gene expression in brain tissue” value (ABCA1) of the same compound?
The value was “highly expressed”.

What about the “APOE gene expression in brain tissue” value (APOE) of the same compound?
The value was “highly expressed”.

And the “macroscopic arthritic score (maximum score=16)” value (rheumatoid arthritis)?
The value was “lower”.

What about the “TNF-α expression (ELISA)” value (TNF-α) of the same compound?
Its value is “lower level”.

Reference: patent US12685738B2, “Inotodiol as agonist of liver x receptors, and use thereof” (CARBOEXPERT INC., priority 2020, dated 2026)
